Results published in patent publication US5554631A, “5-pyrrolyl-6-halogeno-2-pyridylmethylsulfinyl benzimidazole derivatives” (Il-Yang Pharm. Co., Ltd., priority 1994, dated 1996).

Columns and labels:
[1] = tested on: gastric and duodenal ulcers; experiment: Anti-ulcer effect / pharmacological efficacy (general statements); conditions: in words
acidity = experiment: Inhibition of acidity (total acid output), Shay method; assay type: in vivo, SD male rats; conditions: 5 h; for Volume (inhibition of acidity) / Inhibition rate, acidity: intraduodenal, rat; for Inhibition rate, acidity: vs normal group; for ED50: Rattus norvegicus
Procedure: (§1) The specific test methods are as follows.
(§2) SD male rats (200±20 g) were fasted for 24 hours, except for water, and then anesthesized with ether. The abdomen of rats was incised and then the pylorus was ligated. The test compounds were suspended or dissolved in […] (carboxymethylcellulose) and injected into duodenum. After the abdomen was suctured, the rats were allowed to stand for 5 hours and then sacrificed with ether. The stomach was removed from rats and the gastric juices were collected. The gastric juice was centrifuged with 10,000×g for 10 minutes at 4° C. to remove the precipitate. The amount of gastric juice and acidity were determined using pH 7.0 end point assay with 0.02N NaOH and then the total acid output was calculated.

ICR (male, female) mouse = experiment: in vivo; conditions: for Acute toxicity (in words): clinical symptoms, death and autopsy results; for Number of animals died in day after administration: each of days 0-14
Procedure: (§3) Five weeks aged ICR (male, female) mouse were pre-bred in the breeding cage for one week and then the animals showing a smooth gain in body weight were randomly selected and used in this test. The amount to be administered to the test animals was established on the basis of the maximum dose of 5,000 mg/kg with the common ratio of 1.5.
(§4) The test compounds in a powder were suspended in 0.5% methylcellulose and administered per oral using a lml syringe. The other specific conditions for administration are described in the following.
(§5) In the above test, the control group received only 0.5% methylcellulose.
(§6) (1) Clinical symptoms and death of test animals
(§7) The clinical symptoms and death of test animals caused by the test compounds were recorded immediately after administration of the test compounds and during the overall test period.

in vivo = conditions: mouse, in vivo, po
Procedure: as §3, §4, §5, §6, §7

H^+ /K^+ -ATPase = molecular target: T1, H^+ /K^+ -ATPase (Oryctolagus cuniculus, UniProt P27112); experiment: Inhibition of H+/K+-ATPase enzyme activity in vitro; assay type: biochemical, rabbit; conditions: rabbit gastric microsomal H+/K+-ATPase, 5 min pre-incubation at 37° C., 4 mM ATP; read-out: IC50
T1 construct: The gastric mucous membrane was removed from rabbit; from tissue; host or cells: rabbit gastric mucosa, microsomal fraction (77,000 xg)
T1 sequence (P27112 2-1035 limits assumed): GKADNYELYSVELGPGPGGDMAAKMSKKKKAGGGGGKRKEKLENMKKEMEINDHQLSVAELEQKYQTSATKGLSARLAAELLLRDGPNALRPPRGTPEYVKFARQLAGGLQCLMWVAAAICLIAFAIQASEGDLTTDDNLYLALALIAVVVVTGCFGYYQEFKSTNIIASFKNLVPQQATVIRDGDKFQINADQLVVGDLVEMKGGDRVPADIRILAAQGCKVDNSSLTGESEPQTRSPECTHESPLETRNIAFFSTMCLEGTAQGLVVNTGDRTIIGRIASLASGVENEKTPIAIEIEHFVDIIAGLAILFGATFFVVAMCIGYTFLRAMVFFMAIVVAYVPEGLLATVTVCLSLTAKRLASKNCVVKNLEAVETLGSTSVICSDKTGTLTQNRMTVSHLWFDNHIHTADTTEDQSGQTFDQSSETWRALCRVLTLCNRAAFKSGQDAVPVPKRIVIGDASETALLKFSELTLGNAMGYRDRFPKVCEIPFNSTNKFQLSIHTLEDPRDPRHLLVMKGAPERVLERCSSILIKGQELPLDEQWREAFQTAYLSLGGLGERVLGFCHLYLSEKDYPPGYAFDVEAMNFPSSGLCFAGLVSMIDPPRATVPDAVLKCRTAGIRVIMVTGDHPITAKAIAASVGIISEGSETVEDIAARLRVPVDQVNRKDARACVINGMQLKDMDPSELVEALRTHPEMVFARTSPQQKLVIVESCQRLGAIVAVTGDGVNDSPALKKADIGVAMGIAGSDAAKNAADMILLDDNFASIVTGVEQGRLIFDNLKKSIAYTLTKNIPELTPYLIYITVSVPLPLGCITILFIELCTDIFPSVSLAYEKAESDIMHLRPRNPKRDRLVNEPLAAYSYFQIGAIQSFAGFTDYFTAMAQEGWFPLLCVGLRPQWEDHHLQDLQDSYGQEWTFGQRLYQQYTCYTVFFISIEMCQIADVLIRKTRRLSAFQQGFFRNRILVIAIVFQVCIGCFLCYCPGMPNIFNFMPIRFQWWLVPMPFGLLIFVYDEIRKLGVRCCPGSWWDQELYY
T1 sequence (P18597 whole entry partner): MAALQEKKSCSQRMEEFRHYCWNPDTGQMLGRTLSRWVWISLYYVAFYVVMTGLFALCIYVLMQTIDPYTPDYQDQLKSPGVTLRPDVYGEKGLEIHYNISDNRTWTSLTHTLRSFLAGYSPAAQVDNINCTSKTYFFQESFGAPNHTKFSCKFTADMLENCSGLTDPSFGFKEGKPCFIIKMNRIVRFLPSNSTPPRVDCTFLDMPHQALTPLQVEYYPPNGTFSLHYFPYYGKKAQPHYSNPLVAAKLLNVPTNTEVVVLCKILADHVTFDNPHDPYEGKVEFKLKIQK
Procedure: The gastric mucous membrane was removed from rabbit and then centrifuged with 77,000 xg using a ultracentrifuge to separate the microsomal fraction which was used as the source of H^+ /K^+ -ATPase enzyme for this test. 60 μg of H^+ /K^+ -ATPase was pre-incubated with the sample (the compound according to the present invention) for 5 minutes at 37° C. and then 4 mM ATP as the substrate and 4 mM Mg^++, 20 mM K^+ as the cofactor were added thereto. Then, the amount of inorganic phosphorus thus produced was determined using a spectrophotometer at 660 nm and converted into the amount of protein according to Lowry method. […]

gastric juice secretion = experiment: Inhibition of gastric juice secretion, Shay method; assay type: in vivo, SD male rats; conditions: 5 h; for Gastric juice volume / Inhibition rate, gastric juice secretion: intraduodenal, rat; for Inhibition rate, gastric juice secretion: vs normal group; for ED50: Rattus norvegicus
Procedure: as §1, §2

[2] = tested on: proton pump of H^+, K^+ -ATPase; conditions: background art; cited from earlier work
[3] = tested on: gastric and duodenal ulcers; conditions: background art; cited from earlier work

Structure (SMILES): COc1ccnc(C[S+]([O-])c2nc3cc(-n4cccc4)c(F)cc3[nH]2)c1C (centres unmarked) [Compound 2, 2-[[(4-methoxy-3-methyl)-2-pyridinyl]methylsulfinyl]-5-(1H-pyrrol-1-yl)-6-fluoro-1H-benzimidazole]
- Anti-ulcer effect compared with Omeprazole [1]: anti-ulcer effect is similar to that of Omeprazole
- Volume (inhibition of acidity) (acidity; 3 mg/kg): 34.60 ± 8.12 μEq/hr
- Inhibition rate, acidity (acidity; 3 mg/kg): 40.62%
- Volume (inhibition of acidity) (acidity; 10 mg/kg): 14.28 ± 4.28 μEq/hr
- Inhibition rate, acidity (acidity; 10 mg/kg): 75.35%
- Volume (inhibition of acidity) (acidity; 30 mg/kg): 5.72 ± 0.59 μEq/hr
- Inhibition rate, acidity (acidity; 30 mg/kg): 90.13%
- ED50 (acidity): 4.04 mg/kg
- Acute toxicity (in words) (ICR (male, female) mouse; oral, mouse): very low as in Omeprazole
- Safety (conclusion) (ICR (male, female) mouse; mouse, in vivo): very safe compound
- LD50 (ICR (male, female) mouse; mouse, in vivo, po): > 5,000.0 mg/kg BW
- Visual autopsy view (ICR (male, female) mouse; mouse, in vivo, po): No specific abnormal autopsy view was observed
- LD50 (in vivo): > 5000 mg/kg
- IC50 (H^+ /K^+ -ATPase): 4.1 µM
- Gastric juice volume (gastric juice secretion; 3 mg/kg): 2.11 ± 0.36 ml/100 g BW
- Inhibition rate, gastric juice secretion (gastric juice secretion; 3 mg/kg): 35.28%
- Gastric juice volume (gastric juice secretion; 10 mg/kg): 1.52 ± 0.19 ml/100 g BW
- Inhibition rate, gastric juice secretion (gastric juice secretion; 10 mg/kg): 53.37%
- Gastric juice volume (gastric juice secretion; 30 mg/kg): 1.03 ± 0.10 ml/100 g BW
- Inhibition rate, gastric juice secretion (gastric juice secretion; 30 mg/kg): 68.40%
- ED50 (gastric juice secretion): 8.18 mg/kg

Structure (SMILES): COc1ccc2[nH]c([S+]([O-])Cc3ncc(C)c(OC)c3C)nc2c1 (centres unmarked) [Omeprazole, 5-methoxy-2-[[(4-methoxy-3,5-dimethyl-2-pyridinyl)methyl]sulfinyl]-1H-benzimidazole]
- Acting mechanism [2]: specific proton pump inhibitor
- Volume (inhibition of acidity) (acidity; 10 mg/kg): 9.91 ± 4.20 μEq/hr
- Inhibition rate, acidity (acidity; 10 mg/kg): 82.89%
- ED50 (acidity): 3.73 mg/kg
- Acute toxicity (in words) (ICR (male, female) mouse; oral, mouse): very low as in Omeprazole
- LD50 (ICR (male, female) mouse; female mouse, oral): > 5,000.0 mg/kg BW
- Number of animals died in day after administration (ICR (male, female) mouse; female mouse, oral, 987 mg/kg): 0
- Number of animals died in day after administration (ICR (male, female) mouse; female mouse, oral, 1481 mg/kg): 0
- Number of animals died in day after administration (ICR (male, female) mouse; female mouse, oral, 2222 mg/kg): 0
- Number of animals died in day after administration (ICR (male, female) mouse; female mouse, oral, 3333 mg/kg): 0
- Number of animals died in day after administration (ICR (male, female) mouse; female mouse, oral, 5000 mg/kg): 0
- Clinical symptoms (ICR (male, female) mouse; male and female, oral, maximum administration amount of 5,000 mg per kg): No specific abnormal clinical symptoms were observed
- LD50 (ICR (male, female) mouse; male mouse, oral): > 5,000.0 mg/kg BW
- Number of animals died in day after administration (ICR (male, female) mouse; male mouse, oral, 987 mg/kg): 0
- Number of animals died in day after administration (ICR (male, female) mouse; male mouse, oral, 1481 mg/kg): 0
- Number of animals died in day after administration (ICR (male, female) mouse; male mouse, oral, 2222 mg/kg): 0
- Number of animals died in day after administration (ICR (male, female) mouse; male mouse, oral, 3333 mg/kg): 0
- Number of animals died in day after administration (ICR (male, female) mouse; male mouse, oral, 5000 mg/kg): 0
- Visual autopsy view (ICR (male, female) mouse; survived animals, oral): No specific abnormal autopsy view was observed
- LD50 (in vivo): > 5000 mg/kg
- IC50 (H^+ /K^+ -ATPase): ~160 µM
- Gastric juice volume (gastric juice secretion; 10 mg/kg): 1.49 ± 0.18 ml/100 g BW
- Inhibition rate, gastric juice secretion (gastric juice secretion; 10 mg/kg): 54.29%
- ED50 (gastric juice secretion): 8.5 mg/kg
- Anti-ulcer effect over conventional H2-receptor antagonists [3]: superior effect over conventional H2 -receptor antagonists
- Duration compared with conventional anti-ulcer agents [3]: prolonged duration in comparison with conventional anti-ulcer agents
